The text below walks through data of patent US20240245702A1, “Inhibition of Lysine Demethylase 1 (Lsd1) Induces Differentiation of Hair Cells” (Massachusetts Eye and Ear Infirmary, priority 2018, published 2024).

Common to all, as to type: cell-based, mouse
One test concerns Atoh1. The test is described as follows: qRT-PCR of Atoh1 in differentiated LCP organoids. As to conditions: D10, pargyline-treated cells relative to standard treatment. The protocol:
(§1) Differentiation of LCPs into a hair cell lineage. […] To analyze the effect of the Lsd1 inhibitors, the LCPs were treated with the small molecules combined with a differentiation drug cocktail, pargyline and CHIR99021 or CHIR99021 at 1, 2, 4, and 10 days (McLean et al., 2017).
(§2) RNA extraction and PCR. For the LCPs, the organoids were treated with Cell Recovery Solution for at 1 hour and TrypleE for 20 minutes, then frozen in RLT buffer. RNA extractions were performed using the RNeasy Micro Kit (QIAGEN) and cDNA generated using ImProm-II Reverse Transcription Kit (Promega). TaqMan Real-Time PCR was performed in triplicates using the TaqMan Gene Expression Master Mix (ThermoFisher Scientific) on a StepOne Real-Time PCR machine (ThermoFisher Scientific). Ordinary One-way Anova was used to assess statistical significance. A minimum of three biologically distinct samples were analyzed for each condition.
(§3) We next tested the effect of Lsd1 inhibition on hair cell differentiation. In this assay, after the cells were expanded into organoids during the initial proliferation phase, differentiation was initiated using the combination of CHIR99021 and LY411575 and allowed to progress for 10 days (DO to D10). Organoids were monitored for the development of hair cells using FACS and qRT-PCR. […] Conversely, Myo7a expression increases throughout development and is a key marker of mature hair cells. […]
Background: Quantitative PCR measures a nucleic acid by following its amplification.

Test [1] relates to Lgr5-expressing cochlear progenitors cells (LCPs). The test can be described thus: Proliferation of Lgr5+ cochlear progenitors (LCPs) in organoid culture. As to conditions: first 10 days in culture, Lgr5-nGFP mice cells, combined with CHIR99021. The protocol:
Isolation and expansion of inner ear Lgr5+ cells. A recently published protocol was used to derive organoids from inner ear stem cells [also referred to as Lgr5+ cochlear progenitors (LCPs) (McLean et al., 2017). Briefly, the organ of Corti was dissected from neonatal mice (postnatal days 2-5) in Hank's balanced salt solution and treated with Cell Recovery Solution (Corning) for 1 hour. The cochlear epithelium was then peeled from the underlying mesenchyme, collected and treated with TrypleE for 20 minutes at 37° C. The single cells were mechanically triturated, filtered ([…] cell strainer) and suspended in a Matrigel (Corning) dome for 3D culture. The cells were seeded in a 24-well plate, specifically at one cochlea per well of a 24-well plate.
For the drug screening experiments, the expanded cells were passaged into a 96 well plate to test varying drug combinations. All experiments were done in triplicate at minimum. Atoh1-nGFP cells were quantified after 10 days in culture. The cell colonies were incubated in Cell Recovery Solution for 1 hour and dissociated into single cells using TrypleE. The total cell number and percentage of GFP+ cells were quantified using fluorescence activated cell sorting (FACS).
We screened a collection of Lsd1 inhibitors over the first 10 days in culture (FIGS. 9A and 9B) to examine their effect on proliferation of LCPs (FIGS. 9C and 9D). […]

Another test deals with LCP organoids. The test is described as follows: Immunostaining of differentiated organoids for Atoh1 and Myo7a. An excerpt: Immunochemistry. […] Nuclei were visualized using DAPI (Vector Laboratories).
Another test has as its system Myo7a. The test can be described thus: qRT-PCR of Myo7a in differentiated LCP organoids. As to conditions: D10, pargyline-treated cells relative to standard treatment, p<0.05. As for the experimental part: as §1, §2, §3
In another test the test system is Atoh1 locus. The test is described as follows: Chromatin immunoprecipitation (ChIP-qPCR) of histone marks on the Atoh1 gene in LCPs. The protocol:
Chromatin immunoprecipitation. The colonies were treated with Cell Recovery solution for up to 2 hours and TrypleE for 30 minutes. The cells were fixed with 1% formaldehyde for 30 minutes at room temperature before termination with 0.1M Glycine. The cells were treated with lysis buffer (0.5M EDTA and 0.05% Triton-X 100) for 30 minutes on ice and then with nuclear extraction buffer (0.5M EDTA, 20% SDS, 1M Tris-HCl, pH 8) for 10 minutes. The cross-linked chromatin was sonicated for 30 minutes (30×30 seconds with 30 second intervals) and shearing quality confirmed by running 10 ul of the sample on a 1% agarose gel. The input sample used was 5% of the total chromatin. Lo-bind tubes containing Dyna-A and Dyna-B beads in PBS-BSA were incubated with 3 μg of Primary antibody for 6 hours-overnight with rotation at 4° C. The antibodies used were as follows H3K4me (ab8895: Abcam), H3K4me2 (ab77661: Abcam), H3K9me2 (ab1220; Abcam) and Lsd1 (ab17721: Abcam). The chromatin samples were treated with dilution buffer (1% Triton-X 100, 0.5M EDTA, 5M NaCl, 1M Tris-HCl, pH 8 and 1% Protease inhibitors×100) and incubated with the prepared beads for 6 hours-overnight. The beads were captured on a magnetic rack, washed with ChIP RIPA buffer (1M Hepes, 0.5M EDTA, 10% Na-deoxycholate, NP-40 and 5M LiCl: 6×10 minute washes), TE buffer (1M Tris-HCl and 0.5M EDTA: 2×10 minute washes), resuspended in reverse crosslinking solution (0.5M NaHCO3 and 20% SDS) and incubated overnight at 65° C. DNA was recovered using the Active motif DNA extraction kit (58002: Active Motif). RT-qPCR analyses were performed on immunoprecipitated DNA using specific primers described in Table 2. The results were calculated and presented as relative fold enrichment over the input.
In order to further dissect the mechanism of Lsd1 activity, we analyzed changes in epigenetic marks on several sites along the Atoh1 gene using chromatin immunoprecipitation. We used the LCPs starting at day 0 (D0) of differentiation with day 10 (D10) as the endpoint (FIG. 5A). Lsd1 has been characterized to demethylate the activating epigenetic marks H3K4me and H3K4me2 (Shi et al., 2004). […] Consistently, we observed accumulation of the activating H3K4me2 mark at the proximal promoter region (region 2) of the Atoh1 gene during hair cell differentiation (D10, p<0.05*: FIG. 5B). […] In addition, we examined the enrichment levels of H3K4me around the Atoh1 locus. […] Collectively, these findings reveal that Lsd1 inhibition increases accumulation of activating epigenetic marks, thereby facilitating the opening of the chromatin and activating transcription of the Atoh1 gene.
As Lsd1 is also known to demethylate H3K9me2, we analyzed the changes in the levels of this repressive mark at the Atoh1 locus (Metzger et al., 2005).

Turning to `C#CCN(C)Cc1ccccc1` [pargyline, N-Methyl-N-propargylbenzylamine], the “mRNA levels of Atoh1” value with Atoh1 is reported as “no difference”. Besides, the “proliferation of Lgr5 cells (LCP cell division)” value in test [1] came out at 26%. Moreover, the “immunostaining for Atoh1 and Myo7a” value in the test on LCP organoids was “almost uniformly positive”. Also, in the test with Myo7a, the Myo7a expression entry is recorded as “significantly upregulated”. In the test with Atoh1 locus (D10 with pargyline), the “levels of H3K4me2 at the enhancer regions (region 5) of Atoh1” value is “not statistically significant”. The “level of H3K4me2 at the proximal promoter region (region 2) of Atoh1” value in the test with Atoh1 locus (D10 with pargyline compared to D0, p<0.01) is listed as “significantly increased”. Also, in the test with Atoh1 locus (addition of pargyline), the “enrichment for H3K9me2 on the Atoh1 gene” value was “did not significantly alter”. For the same compound, the “H3K4me mark at the enhancer region (region 5) of Atoh1” value in the test on Atoh1 locus (after pargyline treatment, p<0.01) is listed as “significant enrichment”.
